Experiment [1] concerns the target T1, mMC3R (Mus musculus, UniProt P33033). The experiment can be described thus: mMC3R | Antagonist Potency Ki (nM). Also on record: expressed in transfected cells; host or cells: HEK293. The source says:
(§1) Table printed on a drawing sheet, FIGURE 18
(§2) Title: Tetrapeptide Antagonist Pharmacology at the Mouse Melanocortin Receptors.^a
Head of the field: mMC3R | Antagonist Potency Ki (nM)
(§3) First copying reader's note: Columns 4 and 7 are empty spacer columns as printed; the table runs off the bottom of the sheet (continued on the next sheet) and footnotes a and b are not printed here.
Target sequence in this assay (P33033 whole entry, looked up): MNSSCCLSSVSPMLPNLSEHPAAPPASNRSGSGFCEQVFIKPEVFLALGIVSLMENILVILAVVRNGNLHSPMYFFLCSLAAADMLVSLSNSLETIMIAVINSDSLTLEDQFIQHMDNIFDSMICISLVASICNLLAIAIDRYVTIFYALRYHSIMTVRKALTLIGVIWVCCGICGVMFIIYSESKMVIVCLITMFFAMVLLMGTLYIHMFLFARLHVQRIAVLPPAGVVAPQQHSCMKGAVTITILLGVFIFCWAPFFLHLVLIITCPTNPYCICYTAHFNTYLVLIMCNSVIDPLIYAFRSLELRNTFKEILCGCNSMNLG

The target in experiment [2] is T2, mMC4R (Mus musculus, UniProt P56450). The experiment can be described thus: mMC4R | Antagonist Potency Ki (nM). Also on record: expressed in transfected cells; host or cells: HEK293.
From the text: as §1, §2
Target sequence in this assay (P56450 whole entry, looked up): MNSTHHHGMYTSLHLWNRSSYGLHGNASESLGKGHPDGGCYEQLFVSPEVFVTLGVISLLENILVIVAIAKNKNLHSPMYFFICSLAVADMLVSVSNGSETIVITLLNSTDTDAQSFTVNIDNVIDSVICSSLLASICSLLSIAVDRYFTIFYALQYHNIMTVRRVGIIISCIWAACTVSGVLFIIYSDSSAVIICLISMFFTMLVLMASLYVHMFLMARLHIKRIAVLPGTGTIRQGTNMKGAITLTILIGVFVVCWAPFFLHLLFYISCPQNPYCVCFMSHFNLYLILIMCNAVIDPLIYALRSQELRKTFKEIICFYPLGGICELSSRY
Head of the field: mMC4R | Antagonist Potency Ki (nM)
as §3

Experiment [3] concerns the target T1, mMC3R. The experiment is described as follows: cAMP AlphaScreen antagonist assay at mMC3R, NDP-MSH as agonist, HEK293 cells. The conditions noted are these: for mMC3R antagonist activity: at the concentrations assayed; for mMC3R antagonist pA2: NDP-MSH as agonist, HEK293 cells stably expressing mMC3R.
Target sequence in this assay (P33033 whole entry): as the sequence (P33033 whole entry, looked up) above
The target in a further experiment is mMC5R (Mus musculus, UniProt P41149). The experiment can be described thus: cAMP AlphaScreen agonist assay at mMC5R, HEK293 cells. Particulars: for mMC5R agonist activity: up to 100 μM; for mMC5R partial stimulation, % of the maximal NDP-MSH signal: 100 μM.
mMC5R, sequence (P41149 whole entry): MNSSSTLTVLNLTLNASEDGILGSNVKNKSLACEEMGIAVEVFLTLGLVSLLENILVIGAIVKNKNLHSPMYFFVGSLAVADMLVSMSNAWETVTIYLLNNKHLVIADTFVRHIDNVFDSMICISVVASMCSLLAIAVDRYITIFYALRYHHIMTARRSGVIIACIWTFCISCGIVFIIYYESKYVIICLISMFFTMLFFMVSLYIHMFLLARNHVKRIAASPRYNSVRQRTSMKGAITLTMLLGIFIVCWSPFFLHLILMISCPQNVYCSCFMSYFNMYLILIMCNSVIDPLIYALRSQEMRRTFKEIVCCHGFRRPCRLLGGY
Experiment [4] has as its target T2, mMC4R. The experiment is described as follows: cAMP AlphaScreen antagonist assay at mMC4R, NDP-MSH as agonist, HEK293 cells. The conditions noted are these: NDP-MSH as agonist; HEK293 cells stably expressing mMC4R.
Target sequence in this assay (P56450 whole entry): as the sequence (P56450 whole entry, looked up) above
Protocol: (§4) Following stimulation, streptavidin donor beads (0.5 μg) and biotinylated-cAMP (0.62 μmol) were added to the wells in a green light environment with 10 μL of lysis buffer (5 mM HEPES, 0.3% Tween-20, 0.1% BSA, pH=7.4) and the plates were incubated in the dark at room temperature for an additional 2 h. Plates were read on a Enspire (PerkinElmer) Alpha-plate reader using a pre-normalized assay protocol (set by the manufacturer).
A further experiment concerns the target mMC1R (Mus musculus, UniProt Q01727). Particulars: up to 100 μM.

pEC50, pKi: −log10 of the molar value. Where two headings read alike, the source gives them in different places. Where a SMILES comes first, the peptide text is derived from it. [ ]: non-standard residue; d: D form. dPhe(4-I) = N[C@H](Cc1ccc(I)cc1)C(=O)O; 2Nal = N[C@@H](Cc1ccc2ccccc2c1)C(=O)O; d2Nal = N[C@H](Cc1ccc2ccccc2c1)C(=O)O

mMC1R, sequence (Q01727 whole entry): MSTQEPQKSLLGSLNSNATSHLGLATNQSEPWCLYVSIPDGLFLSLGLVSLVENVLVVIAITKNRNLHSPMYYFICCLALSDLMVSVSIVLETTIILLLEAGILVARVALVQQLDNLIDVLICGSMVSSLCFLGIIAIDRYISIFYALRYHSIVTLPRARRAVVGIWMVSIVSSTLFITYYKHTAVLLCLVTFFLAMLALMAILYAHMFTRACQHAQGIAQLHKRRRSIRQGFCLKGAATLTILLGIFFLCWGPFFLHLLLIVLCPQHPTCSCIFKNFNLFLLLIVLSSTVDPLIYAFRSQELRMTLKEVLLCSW
Protocol for mMC1R: as §4
Protocol for mMC5R: as §4

Regarding `CC(=O)N[C@H](Cc1ccc2ccccc2c1)C(=O)N[C@H](Cc1ccc2ccccc2c1)C(=O)N[C@@H](Cc1c[nH]c2ccccc12)C(=O)N[C@H](CCCCN)C(N)=O` [4 | COR1-29-2, Ac-DNal(2’)-DNal(2’)-Trp-DLys-NH2] (Ac-[d2Nal][d2Nal]W[dK]-NH2), the figures for the pKi at mMC3R [1] and at mMC4R [2] were 5.80 and 6.70, respectively.

For `CC(=O)N[C@H](Cc1ccc2ccccc2c1)C(=O)N[C@@H](CCCNC(=N)N)C(=O)N[C@H](Cc1ccc2ccccc2c1)C(=O)N[C@H](CCCCN)C(N)=O` [13 | COR1-29-5, Ac-DNal(2’)-Arg-DNal(2’)-DLys-NH2] (Ac-[d2Nal]R[d2Nal][dK]-NH2), the pKi on mMC3R [1] is 6.00; on mMC4R [2], 8.20.

As to `CC(=O)N[C@H](Cc1ccc2ccccc2c1)C(=O)N[C@@H](CCCNC(=N)N)C(=O)N[C@H](Cc1ccc2ccccc2c1)C(=O)N[C@H](Cc1ccc2ccccc2c1)C(N)=O` [14 | COR2-57, Ac-DNal(2’)-Arg-DNal(2’)-DNal(2’)-NH2] (Ac-[d2Nal]R[d2Nal][d2Nal]-NH2), the pKi on mMC3R [1] was 5.70; on mMC4R [2], 6.30.

As for `CC(=O)N[C@H](Cc1ccc2ccccc2c1)C(=O)N[C@@H](CCCNC(=N)N)C(=O)N[C@H](Cc1ccc2ccccc2c1)C(=O)N[C@@H](CCCNC(=N)N)C(N)=O` [15 | COR2-93, Ac-DNal(2’)-Arg-DNal(2’)-Arg-NH2] (Ac-[d2Nal]R[d2Nal]R-NH2), the pKi at mMC3R [1] is 6.10; on mMC4R [2], 8.30.

Turning to `CC(=O)N[C@H](Cc1ccc2ccccc2c1)C(=O)N[C@@H](CCCNC(=N)N)C(=O)N[C@@H](Cc1c[nH]c2ccccc12)C(=O)N[C@H](CCCCN)C(N)=O` [16 | COR1-29-6, Ac-DNal(2’)-Arg-Trp-DLys-NH2] (Ac-[d2Nal]RW[dK]-NH2), the pKi at mMC3R [1] is 5.49; on mMC4R [2] it was 7.70.

Consider `CC(=O)N[C@H](Cc1ccc2ccccc2c1)C(=O)N[C@@H](CCCNC(=N)N)C(=O)N[C@@H](Cc1c[nH]c2ccccc12)C(=O)N[C@H](Cc1ccc2ccccc2c1)C(N)=O` [17 | COR1-60, Ac-DNal(2’)-Arg-Trp-DNal(2’)-NH2] (Ac-[d2Nal]RW[d2Nal]-NH2), for which the pKi is 5.70 at mMC3R [1] and 7.00 on mMC4R [2].

As for `CC(=O)N[C@H](Cc1ccc2ccccc2c1)C(=O)N[C@@H](CCCNC(=N)N)C(=O)N[C@@H](Cc1c[nH]c2ccccc12)C(=O)N[C@@H](CCCNC(=N)N)C(N)=O` [18 | MDE10-27, Ac-DNal(2’)-Arg-Trp-Arg-NH2] (Ac-[d2Nal]RWR-NH2), the pKi at mMC3R [1] was 6.80; at mMC4R [2], 8.30.

As for `CC(=O)N[C@H](Cc1ccc2ccccc2c1)C(=O)N[C@@H](CCCNC(=N)N)C(=O)N[C@H](Cc1ccc(I)cc1)C(=O)N[C@H](CCCCN)C(N)=O` [19 | COR1-29-7, Ac-DNal(2’)-Arg-DPhe(pI)-DLys-NH2], the pKi at mMC3R [1] is 6.89; at mMC4R [2] it was 8.49.

As for `CC(=O)N[C@H](Cc1ccc2ccccc2c1)C(=O)N[C@@H](CCCNC(=N)N)C(=O)N[C@H](Cc1ccc(I)cc1)C(=O)N[C@H](Cc1ccc2ccccc2c1)C(N)=O` [20 | COR2-15, Ac-DNal(2’)-Arg-DPhe(pI)-DNal(2’)-NH2] (Ac-[d2Nal]R[dPhe(4-I)][d2Nal]-NH2), the pKi on mMC3R [1] was 6.10; on mMC4R [2], 6.49.

On to `CC(=O)N[C@H](Cc1ccc2ccccc2c1)C(=O)N[C@@H](CCCNC(=N)N)C(=O)N[C@H](Cc1ccc(I)cc1)C(=O)N[C@@H](CCCNC(=N)N)C(N)=O` [21 | COR2-105, Ac-DNal(2’)-Arg-DPhe(pI)-Arg-NH2] (Ac-[d2Nal]R[dPhe(4-I)]R-NH2), for which the figures for the pKi at mMC3R [1] and on mMC4R [2] were 7.10 and 8.60, respectively.

`CC(=O)N[C@H](Cc1ccc2ccccc2c1)C(=O)N[C@@H](CCCNC(=N)N)C(=O)N[C@@H](Cc1ccc2ccccc2c1)C(=O)N[C@H](CCCCN)C(N)=O` [22 | COR1-29-8, Ac-DNal(2’)-Arg-Nal(2’)-DLys-NH2] (Ac-[d2Nal]R[2Nal][dK]-NH2): the pKi on mMC3R [1] is 6.20; at mMC4R [2], 7.80.

For the compound `CC(=O)N[C@H](Cc1ccc2ccccc2c1)C(=O)N[C@@H](CCCNC(=N)N)C(=O)N[C@@H](Cc1ccc2ccccc2c1)C(=O)N[C@H](Cc1ccc2ccccc2c1)C(N)=O` [23 | COR2-33, Ac-DNal(2’)-Arg-Nal(2’)-DNal(2’)-NH2] (Ac-[d2Nal]R[2Nal][d2Nal]-NH2), the pKi at mMC4R [2] was 6.70.

With `CC(=O)N[C@H](Cc1ccc2ccccc2c1)C(=O)N[C@@H](CCCNC(=N)N)C(=O)N[C@@H](Cc1ccc2ccccc2c1)C(=O)N[C@@H](CCCNC(=N)N)C(N)=O` [24 | MDE10-28, Ac-DNal(2’)-Arg-Nal(2’)-Arg-NH2] (Ac-[d2Nal]R[2Nal]R-NH2), the pKi is 7.00 at mMC3R [1] and 8.80 at mMC4R [2].

For the compound `CC(=O)N[C@H](Cc1ccc(I)cc1)C(=O)N[C@H](Cc1ccc2ccccc2c1)C(=O)N[C@H](Cc1ccc2ccccc2c1)C(=O)N[C@H](CCCCN)C(N)=O` [25 | COR1-80, Ac-DPhe(pI)-DNal(2’)-DNal(2’)-DLys-NH2] (Ac-[dPhe(4-I)][d2Nal][d2Nal][dK]-NH2), on mMC4R [2], the pKi is 6.30.

As to `CC(=O)N[C@H](Cc1ccc2ccccc2c1)C(=O)N[C@H](Cc1ccc2ccccc2c1)C(=O)N[C@H](Cc1ccc2ccccc2c1)C(=O)N[C@@H](CCCNC(=N)N)C(N)=O` [compound 3, Ac-DNal(2′)-DNal(2′)-DNal(2′)-Arg-NH2] (Ac-[d2Nal][d2Nal][d2Nal]R-NH2), the “mMC3R antagonist activity” value at mMC3R [3] is on record as “did not act as antagonists”. Also, at mMC5R, the pEC50 is 6.10 to 7.52 and the “mMC5R agonist activity” value is “full mMC5R agonists”. Further, on mMC5R (read-out: mMC5R agonist EC50), the pEC50 is 6.89.

With `CC(=O)N[C@H](Cc1ccc2ccccc2c1)C(=O)N[C@H](Cc1ccc2ccccc2c1)C(=O)N[C@H](Cc1ccc(I)cc1)C(=O)N[C@@H](CCCNC(=N)N)C(N)=O` [compound 9, Ac-DNal(2′)-DNal(2′)-DPhe(pI)-Arg-NH2] (Ac-[d2Nal][d2Nal][dPhe(4-I)]R-NH2), at mMC3R [3], the “mMC3R antagonist activity” value was “did not act as antagonists”. In addition, the results for the pEC50 at mMC5R and on mMC5R (read-out: mMC5R agonist EC50) were 6.10 to 7.52 and 7.52, respectively. Further, the “mMC5R agonist activity” value at mMC5R is given as “full mMC5R agonists”.

In the case of `CC(=O)N[C@H](Cc1ccc(I)cc1)C(=O)N[C@H](Cc1ccc2ccccc2c1)C(=O)N[C@H](Cc1ccc2ccccc2c1)C(=O)N[C@@H](CCCNC(=N)N)C(N)=O` [compound 27, Ac-DPhe(pI)-DNal(2′)-DNal(2′)-Arg-NH2] (Ac-[dPhe(4-I)][d2Nal][d2Nal]R-NH2), the “mMC3R antagonist activity” value on mMC3R [3] is “did not act as antagonists”. On mMC5R, the “mMC5R agonist activity” value was “full mMC5R agonists”.

Take `CC(=O)N[C@H](Cc1ccc(I)cc1)C(=O)N[C@H](Cc1ccc2ccccc2c1)C(=O)N[C@@H](Cc1ccc2ccccc2c1)C(=O)N[C@@H](CCCNC(=N)N)C(N)=O` [compound 36, Ac-DPhe(pI)-DNal(2′)-Nal(2′)-Arg-NH2] (Ac-[dPhe(4-I)][d2Nal][2Nal]R-NH2): the “mMC4R antagonist pA2” value at mMC4R [4] was found to be 5.8. Also, the “mMC3R antagonist activity” value at mMC3R [3] is “did not act as antagonists”. Further, at mMC5R, the pEC50 was 6.10 to 7.52 and the “mMC5R agonist activity” value is on record as “full mMC5R agonists”.

As to “Ac-DNal(2′)-Arg-DPhe(pI)-Arg-NH2 [compound 21]”, the “mMC1R agonist activity” value on mMC1R is listed as “full agonist activity”.

For the compound “Ac-DNal(2′)-Arg-DPhe(pI)-DLys-NH2 [compound 19]”, the “mMC1R agonist activity” value at mMC1R is “full agonist activity”.

For “Ac-DNal(2′)-DNal(2′)-Nal(2′)-Arg-NH2 [compound 12]”, the “mMC5R partial stimulation, % of the maximal NDP-MSH signal” value (“mMC5R partial stimulation, %” for short) at mMC5R stood at 40%.

In the case of “Ac-DNal(2′)-DNal(2′)-Trp-DLys-NH2 [compound 4]”, the “mMC3R antagonist pA2” value at mMC3R [3] is 5.8.

Consider “Ac-DPhe(pI)-Arg-DPhe(pI)-Arg-NH2 [compound 45]”, for which the “mMC1R agonist activity” value on mMC1R is given as “full agonist activity”.

As to “Ac-DPhe(pI)-Arg-DPhe(pI)-DLys-NH2 [compound 43]”, the “mMC1R agonist activity” value at mMC1R was “full agonist activity”.

In the case of “Ac-DPhe(pI)-DNal(2′)-DNal(2′)-DLys-NH2 [compound 25]”, at mMC4R [4], the “mMC4R antagonist pA2” value was 6.3.

Turning to “Ac-DPhe(pI)-DNal(2′)-Nal(2′)-DLys-NH2 [compound 34]”, at mMC5R, the “mMC5R partial stimulation, %” value is listed as 50%.

Turning to “Ac-DPhe(pI)-DNal(2′)-Trp-Arg-NH2 [compound 30]”, the “mMC4R antagonist pA2” value on mMC4R [4] is 5.6. The “mMC5R agonist activity” value at mMC5R was “inactive”.

Regarding “Ac-DPhe(pI)-DNal(2′)-Trp-DLys-NH2 [compound 28]”, the “mMC4R antagonist pA2” value at mMC4R [4] stood at 6.6. The “mMC3R antagonist pA2” value at mMC3R [3] was determined as 5.7.

For the compound Ac-[d2Nal]RW[dK]-NH2 [compound 16], the “mMC4R antagonist pA2” value at mMC4R [4] was determined as 7.7.

As to Ac-[d2Nal]R[2Nal]R-NH2 [compound 24], at mMC4R [4], the “mMC4R antagonist pA2” value is reported as 8.8.

In the case of Ac-[d2Nal][d2Nal]WR-NH2 [compound 6], the “mMC5R partial stimulation, %” value at mMC5R was found to be 45%.

Turning to Ac-[dPhe(4-I)]RW[dK]-NH2 [compound 40], the “mMC4R antagonist pA2” value on mMC4R [4] was 7.6.

(Values after patent US20240002438A1, “MELANOCORTIN LIGANDS AND METHODS OF USE THEREOF” (REGENTS OF THE UNIVERSITY OF MINNESOTA, priority 2021, published 2024).)
